Data taken from paper PMC7844219, “Antifibrotic effect of novel neutrophil gelatinase-associated lipocalin inhibitors in cardiac and renal disease models” (Scientific Reports, 2021).

Legend:
[1] = system: myocardial infarction mouse model; assay: Myocardial infarction (MI) mouse model, left coronary artery ligation; type: in vivo; conditions: MI mice
Protocol: (§1) Animals were housed in a climate-controlled facility with a 12-h/12-h light/dark cycle and provided free access to food and water. Experiments were approved by the Darwin ethics committee of Sorbonne University, and conducted according to the INSERM animal care and use committee guidelines. The NGAL inhibitor GP1 was incorporated in regular chow (A04, Safe, Augy, France) at the dose of 625 mg GP1/kg of chow to achieve a low dose of 100 mg/kg/day of GP1 administered to the mice (based on a daily consumption of 4 g of chow).
Myocardial infarction (MI) was induced as previously described. Briefly, Chronic Heart Failure (CHF) resulted from left ventricle MI that was induced by left coronary artery ligation in 8 week-old male mice. Mice were anesthetized with intraperitoneal injections of ketamine (90 mg/kg, Merial, France) and xylazine (3.6 mg/kg, Bayer, France), followed by artificial ventilation. Anesthesia and sedation were controlled by monitoring heart rate and by performing paw pinch reflex and corneal reflex tests, before a thoracotomy was performed. The left main coronary artery was ligated close to its origin. After surgery, analgesia was prolonged during the awakening phase by an intramuscular injection of Beprucare (50 µg/kg). Post-infarction mortality in this mouse model is about 30–40%, primarily occurring around days 4–7 after MI. Sham-operated mice (control) were subjected to the same protocol except that the artery was not ligated. The inhibitor was administered the 8 day after MI for the indicated period. Tissue were harvested after 12 weeks after MI. Left ventricle diastolic and systolic diameters were measured in anesthetized (isofluorane 1.5%) mice, according to the American Society of Echocardiography’s leading-edge method (using Vivid 7 echograph a 14 MHz probe). In addition, LV outflow velocity was measured by pulsed waves, and CO was calculated as follows:
CO=aortic VTI×π×LV outflow diameter/2^2×heart rate, where VTI is velocity–time integral.
(§2) LV hemodynamic was assessed as described previously. Briefly, mice were anesthetized (chloral 320 mg/kg, IP) and the carotid artery cannulated with a pressure–volume catheter (SPR839, Millar-Instruments, USA) and the catheter was advanced into the LV. Pressure–volume loops were obtained at baseline and during loading by gently occluding the abdominal aorta. LV end-systolic and end-diastolic pressures, dP/dtmax/min, LV relaxation constant tau and were measured/calculated with IOX software (EMKA, France). Systolic BP was measured by tail-cuff plethysmography in trained conscious mice at weeks 8–10 using a BP2000 Visitech model. BP was measured every day in the same room at the same hour for 5 consecutive days. The BP measurements (expressed as mmHg) presented are the averages of the last 3 days.
In the MI model, heart was harvested after hemodynamics and the atria and the ventricles were separated and weighed individually. A section of the left ventricle was immersed in Bouin fixative solution. In the CKD model, kidneys were harvested and a section was immersed in paraformaldehyde fixative solution. After fixation, the sections were dehydrated and embedded in paraffin. From these sections, 5-μm thick histologic slices were obtained and were stained with Sirius Red. For the measurement of cardiac or renal collagen density, slides were examined and photographed under a light microscope (Zeiss) at 40× magnification. Collagen content was calculated as percentage of collagen area to total area of the image. Perivascular collagen was excluded from the analysis. For tubular lesions scoring, kidney slides were stained with Periodic Acid-Schiff kit (Sigma) and the score of tubules with injury (epithelial cell necrosis and detachment, and tubular dilation) was analyzed blinded to the experimental groups. […]

CKD mouse model = assay: Chronic kidney disease (CKD) mouse model, 5/6 (subtotal) nephrectomy; type: in vivo; parameters: Plasma creatinine level: unit not given here; conditions: CKD mice
Protocol: as §1, §2
Chronic kidney disease (CKD) was induced by subtotal nephrectomy in 8-weeks-old male mice (25–26 g). All surgeries were performed under ketamine/xylazine anaesthesia. Briefly, the left kidney was exposed, and the upper and lower poles were tied with a poly-glycolic acid suture line. The peritoneum and skin were then sutured, and the animals were returned to their individual cages. After 1 week of recovery, the second kidney was removed. Removal of the second kidney represents T0. Sham mice were subjected to the same surgical procedures but neither renal poles nor the right kidney were removed. Mice were monitored for any sign of distress, and those observed to be experiencing severe, unrelievable pain were euthanized. Renal failure was assessed by the measure of plasma creatinine and urea with an automatic analyser (Konelab 20i; Thermo Fisher Scientific, Vernon Hills, IL) at weeks 4 and 8 post-Nx.
In the MI model, heart was harvested after hemodynamics and the atria and the ventricles were separated and weighed individually. A section of the left ventricle was immersed in Bouin fixative solution. In the CKD model, kidneys were harvested and a section was immersed in paraformaldehyde fixative solution. After fixation, the sections were dehydrated and embedded in paraffin. From these sections, 5-μm thick histologic slices were obtained and were stained with Sirius Red. For the measurement of cardiac or renal collagen density, slides were examined and photographed under a light microscope (Zeiss) at 40× magnification. Collagen content was calculated as percentage of collagen area to total area of the image. Perivascular collagen was excluded from the analysis. For tubular lesions scoring, kidney slides were stained with Periodic Acid-Schiff kit (Sigma) and the score of tubules with injury (epithelial cell necrosis and detachment, and tubular dilation) was analyzed blinded to the experimental groups.
Frozen tissues (kidneys, heart) were homogenized in TRIzol (Life Technologies, Illinois, USA) using FastPrep beads (MP-Bio, CA, USA). cDNAs were generated using the Superscript II reverse transcriptase kit (Invitrogen,NY, USA), and qPCR was performed as previously described. Briefly, transcript levels were analysed in a CFX396 apparatus (Biorad). The reactions were performed in duplicate for each sample using the IQ SYBR Green supermix Kit (Biorad,CA, USA). To normalize gene expression, the geometric mean of multiple internal reference genes were used (RS16, Ubc, Hprt and Gapdh for mice experiments). Values in control conditions were set as 1 for each gene. The sequences of the specific primers are detailed in Table S8.

CC(=O)c1cccc(S(=O)(=O)NCc2ccccc2-n2cccn2)c1 [GPZ614741]
SV (stroke volume) ([1]; GP1 100 mg/kg/day in the food, three months, MI untreated 0.062 ± 0.005): 0.086 ± 0.004 ml/beat
LVESD (left ventricular end systolic diameter) ([1]; GP1 100 mg/kg/day in the food, three months, MI untreated 5.47 ± 0.13): 4.90 ± 0.39 mm
tau 1/2 (relaxation constant) ([1]; GP1 100 mg/kg/day in the food, three months, MI untreated 5.82 ± 0.32): 4.33 ± 0.21
LVEDP ([1]; GP1 100 mg/kg/day in the food, three months, MI untreated 5.91 ± 0.49): 4.41 ± 0.57 mmHg
LVEDD (left ventricular end diastolic diameter) ([1]; GP1 100 mg/kg/day in the food, three months, MI untreated 6.31 ± 0.12): 5.88 ± 0.39 mm
tau e (relaxation constant) ([1]; GP1 100 mg/kg/day in the food, three months, MI untreated 7.97 ± 0.45): 6.08 ± 0.27
LVW/TL (left ventricle weight/tibia length) ([1]; GP1 100 mg/kg/day in the food, three months, MI untreated 8.3 ± 0.3): 8.8 ± 0.6 mg/mm
HW/TL (heart weight/tibia length) ([1]; GP1 100 mg/kg/day in the food, three months, MI untreated 10.9 ± 0.4): 11.3 ± 0.8 mg/mm
FS (fractional shortening) ([1]; GP1 100 mg/kg/day in the food, three months, MI untreated 13.4 ± 1.0): 17.2 ± 1.3 %
CO (cardiac output) ([1]; GP1 100 mg/kg/day in the food, three months, MI untreated 29.4 ± 1.9): 47.1 ± 3.3 mL/min
LVESP (left ventricular end systolic pressure) ([1]; GP1 100 mg/kg/day in the food, three months, MI untreated 78.82 ± 2.76): 82.31 ± 4.22 mmHg
LV (dP/dtmin), relaxation index ([1]; GP1 100 mg/kg/day in the food, three months, MI untreated 3117 ± 253): 4487 ± 413
LV (dP/dtmax), contractility index ([1]; GP1 100 mg/kg/day in the food, three months, MI untreated 3894 ± 259): 4501 ± 320
LV interstitial collagen deposition vs non-treated MI group ([1]; GP1 100 mg/kg/day in the food, Fig. 2A): significantly lower
Infarct size in mid LV sections ([1]; GP1-treated, untreated 39.0 ± 2.3, n = 4–9, NS): 40.0 ± 1.8%
Upregulation of cardiac IL6 protein and inflammatory markers CD68, CD80, CD86 ([1]; GP1, Fig. 2E): significantly prevented
Upregulation of Col I, αSMA and CTGF protein levels ([1]; three months of GP1, Fig. 2B–D): significantly prevented
KW/TL (kidney weight/tibia length) (CKD mouse model; GP1 100 mg/kg/day, two months, CKD untreated 11.5 ± 0.42): 11.3 ± 0.23 mg/mm
Plasma urea level (CKD mouse model; GP1 100 mg/kg/day, two months, CKD untreated 15.2 ± 0.36): 16.74 ± 1.86 mM
Plasma creatinine level (CKD mouse model; GP1 100 mg/kg/day, two months, CKD untreated 21.5 ± 1.45): 20.4 ± 1.54
SBP (systolic blood pressure) (CKD mouse model; GP1 100 mg/kg/day, two months, CKD untreated 139.3 ± 2.22): 122.1 ± 2.58 mmHg
Increased expression of profibrotic markers (Col I, fibronectin, αSMA) (CKD mouse model; kidney mRNA, Fig. 4C): blunted
Functional parameters: plasma levels of urea or creatinine, in words (CKD mouse model; one and two months after CKD induction): no impact
Increase in blood pressure, in words (CKD mouse model; two months of GP1): prevented the increase
Renal tubulointerstitial fibrosis (Sirius red) (CKD mouse model; two months of GP1, Fig. 4A): strong antifibrotic effect
Tubular injury (tubular lesion scoring, PAS) (CKD mouse model; × 3.1 in CKD vs. Sham, Fig. 4B): prevented
